PMC3871529, “At a Supra-Physiological Concentration, Human Sexual Hormones Act as Quorum-Sensing Inhibitors” (PLoS ONE, 2013)

Tests used:
P. aeruginosa = assay: Growth kinetics of P. aeruginosa in the presence of QSIs; type: cell-based, Pseudomonas aeruginosa; conditions: QSI at 0.5 mg/ml, OD600 and CFU at 8 and 18 hour
Method: (§1) Figure 5 QSIs modulated QS-signal accumulation in P. aeruginosa. Growth kinetics (n = 6) of P. aeruginosa was measured (OD600) in the presence of the QSIs (estradiol, estrone, estriol, hordenine and 4-NPO) at 0.5 mg/ml using DMSO as a negative control. Cell counts were assessed (CFU/ml) at 8- and 18-hour, and C4-HSL and OC12-HSL concentration (µM) were determined in the bacterial cultures at 18-hour. Statistically different values (Student's t test with α = 0.01) are noted by asterisks.
(§2) QS gene transcription in P. aeruginosa PAO1 was monitored using PAO1 strains carrying various gene promoters fused to a lacZ reporter gene, as described in Vandeputte et al., 2010 and Table 1. PAO1 reporter strains were prepared according to Vandeputte et al.. Briefly, 18-hours-old liquid cultures (50 µl) were diluted in order to obtain a starting OD600 nm comprised between 0.02 and 0.03 in fresh LB medium supplemented with 50 mM MOPS pH 7.0 (1 ml), carbenicillin (300 µg/ml) and 10 µl of the QSIs to be tested (OD were measured using a SpectraMax M2 device from Molecular Devices). Test and control QSIs were diluted in 100% DMSO (resulting after addition to the growth medium in a 1% final concentration of DMSO). Cultures were incubated for 18 hours at 37°C with agitation. After incubation, cell densities were assessed spectrophotometrically (OD600 nm) and β-galactosidase assays were performed using the substrate o-nitrophenyl-β-D-galactopyranoside as described previously, [29]. Promoterless-lacZ fusions were used as controls. AHLs were quantified as described in Vandeputte et al.. All tests were performed in quintuplicates and three biological repetitions. The statistical significance of each test was evaluated by conducting Student's t tests and two-way ANOVA combined with the Tukey post-analysis test using the GraphPad Prism software and p values≤0.01 were considered significant.

[1] = tested on: Agrobacterium biosensor cells; assay: Minimal inhibitory concentration (MIC); type: cell-based, Agrobacterium tumefaciens; conditions: Agrobacterium; 10^5 CFU/ml, 36 h at 30°C; read-out: MIC
Method: (§3) Aside from the effect of QSI on QS regulation, the toxicity of these compounds was tested on bacterial cells by measuring two parameters: the minimal inhibitory concentration (MIC) and minimal bactericidal concentration (MBC). MIC, which is the lowest concentration of QSI (µg/ml) inhibiting any visible culture after 36 h of incubation at 30°C, was estimated by culturing 10^5 CFU/ml of the Agrobacterium biosensor cells in the presence of different concentrations of the QSI. MBC, which is the lowest concentration of QSI (µg/ml) that results in a 99.9% reduction of the initial bacterial population (10^5 CFU/ml) after 36 h of incubation at 30°C in the presence of different concentrations of QSI, was estimated by plating 100 µL of the Agrobacterium cultures on agar LBm plates. After an incubation of 48 h at 30°C, CFU were counted and the MBC values were calculated.

[2] = tested on: QS-signal accumulation in P. aeruginosa; assay: AHL (C4-HSL, OC12-HSL) quantification in P. aeruginosa cultures by mass spectrometry; type: cell-based, Pseudomonas aeruginosa; conditions: QSI at 0.5 mg/ml, 18-hour
Method: as §1, §2

[3] = tested on: Agrobacterium biosensor cells; assay: Minimal bactericidal concentration (MBC); type: cell-based, Agrobacterium tumefaciens; conditions: Agrobacterium; 99.9% reduction of 10^5 CFU/ml after 36 h at 30°C; read-out: MBC
Method: as §3

LasR = target: T1, LasR (Pseudomonas aeruginosa, UniProt P25084); assay: E. coli bioindicator expressing LasR (pAL105, lasI::luxCDABE luminescence); type: cell-based; conditions: OC12-HSL 100 µM; QSIs at 0.1 mg/ml, naringenin and naringin at 0.5 mg/ml
T1 construct: expressed in transfected cells; host or cells: Escherichia coli JLD271 carrying pAL105 (pSB401-derivative, lasR+ lasI::luxCDABE)
T1 sequence (P25084 whole entry): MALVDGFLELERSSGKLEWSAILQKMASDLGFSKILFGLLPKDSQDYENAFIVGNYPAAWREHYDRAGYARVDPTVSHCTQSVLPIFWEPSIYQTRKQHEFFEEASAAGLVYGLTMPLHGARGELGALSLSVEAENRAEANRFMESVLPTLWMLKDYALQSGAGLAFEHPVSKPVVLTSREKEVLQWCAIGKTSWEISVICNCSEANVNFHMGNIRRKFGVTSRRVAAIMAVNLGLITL
Method: (§4) We determined whether the AHL-binding transcriptional factors LasR and RhlR were impaired in their capacity to activate expression of the QS-regulated genes in the presence of various QSIs. This was achieved by using two E. coli bioindicator strains expressing either LasR or RhlR proteins and harboring an appropriate reporter lux operon for measuring their transcriptional activity in the presence of OC12-HSL at 100 µM and C4-HSL at 10 µM, respectively. Adding C4-HSL to the pAL101-bioindicator or OC12-HSL to the pAL105-bioindicator induced the expression of the reporter lux operon and the consequent production of luminescence. In contrast, only background levels of luminescence were detected in control strains harboring the plasmids pAL102 or pAL106, which lacks the rhlR or lasR gene, respectively.
(§5) Figure 7 QSIs modulated activity of the AHL-sensors in P. aeruginosa. Luminescence of the reporting operon lux, expressed in relative light units (RLU/OD600), was measured in E. coli bioindicator strains harboring the LasR (A) and RhlR (B) AHL-sensing systems of P. aeruginosa in the presence of […]. The QSIs estradiol, estrone, estriol and hordenine were added at 0.1 mg/ml, while naringenin and naringin, added at 0.5 mg/ml, were used as QSI-reference and non-QSI reference, respectively. Each test (n = 6) was compared with the DMSO-condition using Student's t test. Asterisks indicate statistically different data (p value of ≤0.01).
(§6) Escherichia coli JLD271 biosensor strains harboring LasR- and RhlR-based plasmids pAL105 and pAL101 and control plasmids pAL106 (LasR^-) and pAL102 (RhlR^−) (Table 1) were prepared according to Vandeputte et al.. Briefly, these strains were grown in LB medium supplemented with tetracycline (10 µg/ml) and chloramphenicol (25 µg/ml) for 24 h. Then 50-µl portions of the cultures were subcultured in 1 ml of LB medium (the starting OD600 ranged between 0.02 and 0.025 corresponding to 5.10^6 CFU) supplemented with 10 µl of DMSO (1% [vol/vol] final), 10 µl of naringenin or naringin dissolved in DMSO (2 mM, final concentration), or 10 µl of the molecule to be tested. To induce the expression of the lux operon, 0, 1, 10 or […] of C4-HSL was added to pAL101 and pAL102, while OC12-HSL was added to pAL105 and pAL106. After incubation for 2 h at 37°C with agitation (175 rpm), 200 µl of culture was transferred to 96-well OptiPlate-96 F plates from Perkin-Elmer, and the luminescence of each sample was measured by using a TopCount NXT device from Perkin-Elmer. The LasR(pAL106) and RhlR(pAL102) biosensors were used for background subtraction, and the OD600 values were measured to account for the differences in cell density. All experiments were performed in six replicates. The statistical significance of each test was evaluated by conducting Student's t tests using the GraphPad Prism software, and p values ≤0.05 were considered significant. Naringenin (4′,5,7-trihydroxyflavanone), naringin (4′,5,7-trihydroxyflavanone 7-rhamnoglucoside), the AHLs OC12-HSL and C4-HSL were purchased from Sigma-Aldrich and dissolved freshly in 100% DMSO before use. Tested QSIs were dissolved in 100% DMSO before use.

[4] = tested on: QS-regulated genes lasI, lasR, lasB, rhlI, rhlR, rhlA in P. aeruginosa PAO1; assay: QS-regulated gene expression, lacZ transcriptional fusions in PAO1; type: cell-based, Pseudomonas aeruginosa; conditions: QSI at 0.5 mg/ml, 18 hours at 37°C, β-galactosidase
Method: Figure 6 QSIs modulated QS-regulated genes in P. aeruginosa. The β-galactosidase (b-Gal) activity in Miller unit (MU) of the transcriptional fusions lasI-lacZ (A), lasR-lacZ (B), lasB-lacZ (C), rhlI-lacZ (D), rhlR-lacZ (E), rhlA-lacZ (F), and aecA-lacZ(G) were measured in the presence of estradiol, estrone, estriol, hordenine at 0.5 mg/ml, and naringenin at 1 mg/ml as a positive control and DMSO as a negative control. The statistical significance of each test (n = 5 and three biological replicates) was evaluated by Student's t test (i.e. each test was compared with the DMSO condition). Asterisks indicate statistically different data (p value of ≤0.01).
as §2

RhlR = target: T2, RhlR (Pseudomonas aeruginosa, UniProt P54292); assay: E. coli bioindicator expressing RhlR (pAL101, rhlI::luxCDABE luminescence); type: cell-based; conditions: C4-HSL 10 µM; QSIs at 0.1 mg/ml, naringenin and naringin at 0.5 mg/ml
T2 construct: expressed in transfected cells; host or cells: Escherichia coli JLD271 carrying pAL101 (pSB401-derivative, rhlR+ rhlI::luxCDABE)
T2 sequence (P54292 whole entry): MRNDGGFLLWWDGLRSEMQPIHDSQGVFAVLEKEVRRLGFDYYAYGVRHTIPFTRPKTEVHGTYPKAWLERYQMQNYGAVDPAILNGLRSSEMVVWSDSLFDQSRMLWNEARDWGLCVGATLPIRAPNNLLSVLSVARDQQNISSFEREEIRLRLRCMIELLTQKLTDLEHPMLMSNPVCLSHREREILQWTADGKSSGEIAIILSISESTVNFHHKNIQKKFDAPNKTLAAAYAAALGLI
Method: as §4, §5, §6

| SMILES | effect on growth of P. aeruginosa (P. aeruginosa) | MIC [1] | C4-HSL concentration in cell cultures [2] | OC12-HSL concentration in cell cultures [2] | MBC [3] | effect on LasR functionality (lux luminescence) (LasR) | expression of six QS-regulated genes (lasI, lasR, lasB, rhlI, rhlR, rhlA) [4] | effect on RhlR functionality (lux luminescence) (RhlR) |
| --- | --- | --- | --- | --- | --- | --- | --- | --- |
| C[C@]12CC[C@@H]3c4ccc(O)cc4CC[C@H]3[C@@H]1CC[C@@H]2O [Estradiol, estradiol] | did not affect the growth | > 100 µg/mL | reduction | reduction | > 100 µg/mL | affected LasR functionality | decreased | – |
| O=C1CC(c2ccc(O)cc2)Oc2cc(O)cc(O)c21 (centres unmarked) [naringenin, 4′,5,7-trihydroxyflavanone] | – | – | – | – | – | less luminescence | – | less luminescence |
| C[C@@H]1O[C@@H](O[C@H]2[C@H](Oc3cc(O)c4c(c3)O[C@H](c3ccc(O)cc3)CC4=O)O[C@H](CO)[C@@H](O)[C@@H]2O)[C@H](O)[C@H](O)[C@H]1O [naringin, 4′,5,7-trihydroxyflavanone 7-rhamnoglucoside] | – | – | – | – | – | no effect | – | no effect |
